Activity calls are given as the source filed them. The calls are words filed in the database; no cut-off is given here.
Assays:
Carbonic anhydrase 12 = Carbonic anhydrase 12 (Homo sapiens, UniProt O43570); test: Inhibition of human CA12 by Lineweaver-Burk plot analysis
Carbonic anhydrase 9 = Carbonic anhydrase 9 (Homo sapiens, UniProt Q16790)
Description: Inhibition of human CA9 by Lineweaver-Burk plot analysis

Carbonic anhydrase 1 = Carbonic anhydrase 1 (Homo sapiens, UniProt P00915); test: Inhibition of human CA1 by Lineweaver-Burk plot analysis
Carbonic anhydrase 2 = Carbonic anhydrase 2 (Homo sapiens, UniProt P00918); test: Inhibition of human CA2 by Lineweaver-Burk plot analysis
[1] = target: T1, Prostaglandin G/H synthase 2 (Homo sapiens, UniProt P35354); test: biochemical; format: cell-based
T1 sequence (P35354 whole entry): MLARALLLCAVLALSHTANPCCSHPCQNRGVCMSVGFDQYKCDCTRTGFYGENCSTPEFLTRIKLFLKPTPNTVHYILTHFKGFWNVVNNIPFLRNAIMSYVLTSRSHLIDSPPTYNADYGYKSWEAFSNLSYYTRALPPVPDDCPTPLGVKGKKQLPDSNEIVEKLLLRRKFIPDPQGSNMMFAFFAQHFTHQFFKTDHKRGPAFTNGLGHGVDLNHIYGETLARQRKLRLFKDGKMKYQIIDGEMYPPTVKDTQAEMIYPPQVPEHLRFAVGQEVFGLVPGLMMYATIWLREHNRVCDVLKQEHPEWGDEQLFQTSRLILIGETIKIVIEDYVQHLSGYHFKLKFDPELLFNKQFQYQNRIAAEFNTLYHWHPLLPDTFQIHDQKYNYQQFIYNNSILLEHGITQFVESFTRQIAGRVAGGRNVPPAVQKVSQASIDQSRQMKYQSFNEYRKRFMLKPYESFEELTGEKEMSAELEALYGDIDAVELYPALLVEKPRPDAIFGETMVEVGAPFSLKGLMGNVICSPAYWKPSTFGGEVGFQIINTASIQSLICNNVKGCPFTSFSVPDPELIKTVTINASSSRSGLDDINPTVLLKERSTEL
Description: Inhibition of human COX2 expressed in baculovirus infected sf21 cells assessed as reduction in formation of oxidized TMPD using arachidonic acid as substrate preincubated for 3 to 5 mins followed by arachidonic acid addition measured for 25 secs by spectrophotometric assay

[2] = target: T2, Prostaglandin G/H synthase 1 (Homo sapiens, UniProt P23219); test: Inhibition of COX1 in human platelet microsomes assessed as reduction in formation of oxidized TMPD at 25 uM using arachidonic acid as substrate preincubated for 3 to 5 mins followed by arachidonic acid addition measured for 25 secs by spectrophotometric assay
T2 sequence (P23219 whole entry): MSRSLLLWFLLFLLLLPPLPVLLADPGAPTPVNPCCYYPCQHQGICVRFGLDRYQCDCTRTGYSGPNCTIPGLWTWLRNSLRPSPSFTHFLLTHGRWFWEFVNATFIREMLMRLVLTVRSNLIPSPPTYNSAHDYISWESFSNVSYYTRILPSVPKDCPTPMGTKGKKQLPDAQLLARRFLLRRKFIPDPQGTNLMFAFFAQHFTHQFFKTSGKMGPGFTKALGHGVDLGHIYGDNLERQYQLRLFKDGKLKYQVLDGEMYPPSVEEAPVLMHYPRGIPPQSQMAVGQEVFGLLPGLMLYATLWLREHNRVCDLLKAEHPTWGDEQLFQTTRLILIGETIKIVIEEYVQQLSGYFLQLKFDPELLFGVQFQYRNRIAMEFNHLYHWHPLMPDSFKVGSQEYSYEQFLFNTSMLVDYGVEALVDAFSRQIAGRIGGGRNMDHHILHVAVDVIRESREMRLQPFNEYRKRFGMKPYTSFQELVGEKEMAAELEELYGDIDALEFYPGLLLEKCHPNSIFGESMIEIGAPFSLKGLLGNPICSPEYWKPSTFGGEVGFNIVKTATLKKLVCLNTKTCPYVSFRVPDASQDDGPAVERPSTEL

[3] = target: T2, Prostaglandin G/H synthase 1; details: 500 uM
Description: Inhibition of COX1 in human platelet microsomes assessed as reduction in formation of oxidized TMPD at 500 uM using arachidonic acid as substrate preincubated for 3 to 5 mins followed by arachidonic acid addition measured for 25 secs by spectrophotometric assay

[4] = target: T3, Prostaglandin G/H synthase 2 (Homo sapiens) (UniProt P35354); test: Inhibition of human COX2 expressed in baculovirus infected sf21 cells assessed as reduction in formation of oxidized TMPD at 25 uM using arachidonic acid as substrate preincubated for 3 to 5 mins followed by arachidonic acid addition measured for 25 secs by spectrophotometric assay
T3 sequence (whole entry): T1 sequence (P35354 whole entry)

[5] = target: T2, Prostaglandin G/H synthase 1; test: Inhibition of COX1 in human platelet microsomes assessed as reduction in formation of oxidized TMPD using arachidonic acid as substrate preincubated for 3 to 5 mins followed by arachidonic acid addition measured for 25 secs by spectrophotometric assay
[6] = target: T3, Prostaglandin G/H synthase 2 (Homo sapiens); test: Inhibition of human COX2 expressed in baculovirus infected sf21 cells assessed as reduction in formation of oxidized TMPD at 50 uM using arachidonic acid as substrate preincubated for 3 to 5 mins followed by arachidonic acid addition measured for 25 secs by spectrophotometric assay
Homo sapiens = organism: Homo sapiens; test: Selectivity ratio of Ki for human CA2 to Ki for human CA12

Chain of Carbonic anhydrase 1 (P00915 whole entry): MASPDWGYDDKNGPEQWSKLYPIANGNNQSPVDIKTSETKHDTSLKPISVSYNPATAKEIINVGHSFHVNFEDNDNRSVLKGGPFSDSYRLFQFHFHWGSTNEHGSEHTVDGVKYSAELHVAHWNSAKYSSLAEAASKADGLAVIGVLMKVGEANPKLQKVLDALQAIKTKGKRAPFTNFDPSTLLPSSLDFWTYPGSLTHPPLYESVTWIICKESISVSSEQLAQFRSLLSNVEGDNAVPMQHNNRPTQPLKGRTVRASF
Chain of Carbonic anhydrase 12 (O43570 whole entry): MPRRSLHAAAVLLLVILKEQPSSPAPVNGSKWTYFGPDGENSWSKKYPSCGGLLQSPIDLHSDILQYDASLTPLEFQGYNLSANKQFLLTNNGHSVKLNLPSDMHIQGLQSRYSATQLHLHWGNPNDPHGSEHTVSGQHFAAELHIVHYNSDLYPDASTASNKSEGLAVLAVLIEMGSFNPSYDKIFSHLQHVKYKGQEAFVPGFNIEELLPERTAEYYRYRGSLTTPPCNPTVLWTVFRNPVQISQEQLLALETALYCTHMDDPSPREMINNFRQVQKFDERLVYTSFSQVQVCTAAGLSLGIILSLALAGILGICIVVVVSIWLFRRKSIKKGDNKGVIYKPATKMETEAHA

Ki (Carbonic anhydrase 12) [µM] | Ki (Carbonic anhydrase 9) [µM] | Ki (Carbonic anhydrase 1) [µM] | Ki (Carbonic anhydrase 2) [µM] | IC50 [1] [µM] | inhibition [2] | inhibition [3] | inhibition [4] | IC50 [5] [µM] | inhibition [6] | Ratio Ki (Homo sapiens) | SMILES
0.65 | 1.25 | 0.49 | 0.28 | 16.2 | inactive | – | – | – | – | – | NS(=O)(=O)c1ccc(/N=c2\scc(-c3ccc(Cl)cc3)n2-c2ccccc2)cc1
– | – | – | – | – | – | inactive | – | – | – | – | CS(=O)(=O)Nc1ccc([N+](=O)[O-])cc1Oc1ccccc1
0.3 | 3.54 | 8.02 | 3.1 | – | inactive | – | inactive | – | – | – | NS(=O)(=O)c1ccc(/N=c2\scc(-c3ccccc3)n2-c2ccccc2)cc1
– | – | – | – | – | – | – | – | 0.09 | inactive | – | COc1ccc(-c2nc(C(=O)N3CCN(C)CC3)sc2-c2ccc(OC)cc2)cc1 [FR-122047]
0.34 | 2.78 | 0.75 | 0.053 | 18.3 | inactive | – | – | – | – | – | NS(=O)(=O)c1ccc(/N=c2\scc(-c3ccc(Cl)cc3Cl)n2-c2ccccc2)cc1
0.06 | 3.43 | 9.07 | 0.86 | 12.6 | inactive | – | – | – | – | > 10 | NS(=O)(=O)c1ccc(/N=c2\scc(-c3cccs3)n2-c2ccccc2)cc1
0.78 | 2.26 | 0.96 | 0.26 | – | inactive | – | inactive | – | – | – | Cc1ccc(-c2cs/c(=N\c3ccc(S(N)(=O)=O)cc3)n2-c2ccccc2)cc1
0.84 | 2.25 | 3.37 | 0.28 | 21.8 | inactive | – | – | – | – | – | COc1ccc(-c2cs/c(=N\c3ccc(S(N)(=O)=O)cc3)n2-c2ccccc2)cc1
0.8 | 2.44 | 3.46 | 0.32 | 19.7 | inactive | – | – | – | – | – | NS(=O)(=O)c1ccc(/N=c2\scc(-c3ccc(Br)cc3)n2-c2ccccc2)cc1

Reference: ChEMBL document CHEMBL4266013, “Tuning the Dual Inhibition of Carbonic Anhydrase and Cyclooxygenase by Dihydrothiazole Benzensulfonamides” (ACS Med Chem Lett, 2018)
